Like-named read-outs stand apart in the source and are kept apart here. Some results are limits rather than exact numbers.

One test addresses T1, Aurora-A (Homo sapiens, UniProt O14965).
T1 sequence (O14965 1-403): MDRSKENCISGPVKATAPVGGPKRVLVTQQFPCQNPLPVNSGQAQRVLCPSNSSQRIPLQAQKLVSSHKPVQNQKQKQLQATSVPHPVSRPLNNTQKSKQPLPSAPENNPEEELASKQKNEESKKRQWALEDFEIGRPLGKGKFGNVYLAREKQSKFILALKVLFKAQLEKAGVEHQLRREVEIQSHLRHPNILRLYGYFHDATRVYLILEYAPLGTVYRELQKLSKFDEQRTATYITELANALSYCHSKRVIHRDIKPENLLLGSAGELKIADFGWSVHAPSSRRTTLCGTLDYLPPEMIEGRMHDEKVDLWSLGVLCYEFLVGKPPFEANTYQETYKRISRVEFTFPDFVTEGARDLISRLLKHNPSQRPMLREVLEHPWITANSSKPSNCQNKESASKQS
As to the kind of experiment: Flashplate Aurora A enzyme inhibition assay. Format: biochemical. The method, then:
Flashplate® Assay for Identification and Evaluation of Aurora-A Inhibitors
On this assay 384-well Basic Flashplate® (SMP400E, PerkinElmer) as solid assay platform was used. The plates were coated overnight at 4° C. with […] at 100 μg/ml in PBS buffer and used after being washed twice with PBS. 5 μl of compound in 2% DMSO was added to each well followed by 15 μl master mix of kinase buffer (50 mM Tris pH 7.5, 10 mM NaCl, 2.5 mM MgCl2, 1 mM […], 20 μM ATP, and 0.025 μCi/μl ^33P-ATP). Finally, 250 ng per well of Aurora-A enzyme was added. The plate was shaken for approximately 2 min on a flat-bed plate shaker (Wellmix, Denley, UK) and incubated for 2 hours at room temperature. The reaction was stopped by washing the plate twice on a 16-pin wash (ELX50 BioTek Instruments Ltd., Northstar, Bedford, UK) with 10 mM sodium pyrophosphate. The plate was then read on a TopCount-NX™ (PerkinElmer Life Sciences UK Ltd., Hounslow, UK).

The subject of a further test is HCT116 cells. As to the kind of experiment: Cell viability assay (MTT) in HCT116 cell line. Format: cell-based. The conditions noted are these: Homo sapiens, HCT-116, 72 hrs, IC50 range, read-out: HCT116 cell growth inhibition. The method, then: Cell Viability Assay: Determination of IC50 of Aurora Inhibitors in HCT116 Cell Line Using MTT Assay. The effects of compounds of the Examples on cellular proliferation were determined using the MTT assay according to manufacturer's instructions (Sigma). Briefly, the human colon tumour cells HCT116, were seeded in triplicate into 96-well plates at 2500 cells/well 24 hours before treatment with a range of concentrations of Aurora inhibitors (0-50 μM). After 72 hrs, 15 μl/well of 0.5% 3-(4,5-dimethylthiazol-2-yl)-2,5-diphenyltetrazolium bromide (MTT) was added to the cells for 4 hrs at 37° C., the dye-stained viable cells were extracted by adding 150 μl/well of dimethyl sulphoxide (DMSO). […] The IC50 was calculated using the Prism software.

The mark [1] stands for this setting: Flashplate assay, IC50 range, read-out: Aurora-A inhibition.

As for `CN(C)c1ccc(-c2nc3c(N4CCN(CC(=O)N(C)c5ccccc5)CC4)c(Cl)cnc3[nH]2)cc1` [Example 3, 2-{4-[6-Chloro-2-(4-dimethylamino-phenyl)-3H-imidazo[4,5-b]pyridin-7-yl]-piperazin-1-yl}-N-methyl-N-phenyl-acetamide], the IC50 at Aurora-A (setting [1]) was less than 500 nM; in the test with HCT116 cells it was 2000 to 50000 nM.

In the case of `O=C(CN1CCN(c2c(Cl)cnc3[nH]c(-c4ccccc4)nc23)CC1)Nc1nccs1` [Example 4, 2-[4-(6-Chloro-2-phenyl-3H-imidazo[4,5-b]pyridin-7-yl)-piperazin-1-yl]-N-thiazol-2-yl-acetamide], the IC50 at Aurora-A (setting [1]) was less than 500 nM; in the test on HCT116 cells it was 500 to 2000 nM.

Turning to `O=C(CN1CCN(c2c(Br)cnc3[nH]c(-c4ccccc4)nc23)CC1)Nc1nccs1` [Example 5, 2-[4-(6-Bromo-2-phenyl-3H-imidazo[4,5-b]pyridin-7-yl)-piperazin-1-yl]-N-thiazol-2-yl-acetamide], the IC50 is less than 500 nM on Aurora-A (setting [1]) and 2000 to 50000 nM in the test on HCT116 cells.

In the case of `CC(C)(C)OC(=O)NCc1ccc(-c2nc3c(N4CCN(CC(=O)Nc5nccs5)CC4)c(Br)cnc3[nH]2)cc1` [Example 6, (4-{6-Bromo-7-[4-(thiazol-2-ylcarbamoylmethyl)-piperazin-1-yl]-3H-imidazo[4,5-b]pyridin-2-yl}-benzyl)-carbamic acid tert-butyl ester], on Aurora-A (setting [1]), the IC50 was in the range of 500 to 2000 nM.

`CN(C)c1ccc(-c2nc3c(N4CCN(CCOc5ccccc5)CC4)c(Cl)cnc3[nH]2)cc1` [Example 9, (4-{6-Chloro-7-[4-(2-phenoxy-ethyl)-piperazin-1-yl]-3H-imidazo[4,5-b]pyridin-2-yl}-phenyl)-dimethyl-amine]: the IC50 at Aurora-A (setting [1]) is less than 500 nM.

As to `CN(C)c1ccc(-c2nc3c(N4CCNCC4)c(Br)cnc3[nH]2)cc1` [Example 15, [4-(6-Bromo-7-piperazin-1-yl-3H-imidazo[4,5-b]pyridin-2-yl)-phenyl]-dimethyl-amine], at Aurora-A (setting [1]), the IC50 was less than 500 nM.

For `CN(C)c1ccc(-c2nc3c(N4CCN(Cc5c(F)cccc5Cl)CC4)c(Cl)cnc3[nH]2)cc1` [Example 16, 4-(6-Chloro-7-(4-(2-chloro-6-fluorobenzyl)piperazin-1-yl)-3H-imidazo[4,5-b]pyridin-2-yl)-N,N-dimethylaniline], the IC50 on Aurora-A (setting [1]) was 500 to 2000 nM.

With `COc1ccc(C(=O)N2CCN(c3c(Cl)cnc4[nH]c(-c5ccc(N(C)C)cc5)nc34)CC2)cc1` [Example 18, (4-(6-Chloro-2-(4-(dimethylamino)phenyl)-3H-imidazo[4,5-b]pyridin-7-yl)piperazin-1-yl)(4-methoxyphenyl)methanone], on Aurora-A (setting [1]), the IC50 lay in the range of 2000 to 10000 nM.

As for `CN(C)c1ccc(-c2nc3c(N4CCN(C(=O)Nc5ccccc5)CC4)c(Br)cnc3[nH]2)cc1` [Example 39, 4-(6-Bromo-2-(4-(dimethylamino)phenyl)-3H-imidazo[4,5-b]pyridin-7-yl)-N-phenylpiperazine-1-carboxamide], at Aurora-A, the IC50 is less than 500 nM.

`CN(C)c1ccc(-c2nc3c(N4CCN(CCNC(=O)Nc5ccccc5)CC4)c(Br)cnc3[nH]2)cc1` [Example 41, 1-(2-(4-(6-Bromo-2-(4-(dimethylamino)phenyl)-3H-imidazo[4,5-b]pyridin-7-yl)piperazin-1-yl)ethyl)-3-phenylurea]: the IC50 at Aurora-A (setting [1]) was less than 500 nM.

As for `CCNC(=O)N1CCN(c2c(Br)cnc3[nH]c(-c4ccc(N(C)C)cc4)nc23)CC1` [Example 43, 4-(6-Bromo-2-(4-(dimethylamino)phenyl)-3H-imidazo[4,5-b]pyridin-7-yl)-N-ethylpiperazine-1-carboxamide], the IC50 on Aurora-A (setting [1]) is less than 500 nM.

Regarding `CCOC(=O)C1CC1c1nc2c(N3CCN(CC(=O)Nc4nccs4)CC3)c(Br)cnc2[nH]1` (stereo not shown) [Example 45, Ethyl 2-(6-bromo-7-(4-(2-oxo-2-(thiazol-2-ylamino)ethyl)piperazin-1-yl)-3H-imidazo[4,5-b]pyridin-2-yl)cyclopropanecarboxylate], the IC50 at Aurora-A (setting [1]) was 500 to 2000 nM.

For the compound `CCN1CCN(c2c(Br)cnc3[nH]c(-c4ccc(N(C)C)cc4)nc23)CC1` [Example 47, 4-(6-Bromo-7-(4-ethylpiperazin-1-yl)-3H-imidazo[4,5-b]pyridin-2-yl)-N,N-dimethylaniline], the IC50 at Aurora-A (setting [1]) lay within 500 to 2000 nM.

As to `CN(C)c1ccc(-c2nc3c(N4CCN(c5ccccc5)CC4)c(Br)cnc3[nH]2)cc1` [Example 48, 4-(6-Bromo-7-(4-phenylpiperazin-1-yl)-3H-imidazo[4,5-b]pyridin-2-yl)-N,N-dimethylaniline], the IC50 on Aurora-A (setting [1]) was less than 500 nM.

As to `COc1ncccc1-c1nc2c(N3CCN(Cc4cccnc4)CC3)c(Br)cnc2[nH]1` [Example 55, 6-Bromo-2-(2-methoxypyridin-3-yl)-7-(4-(pyridin-3-ylmethyl)piperazin-1-yl)-3H-imidazo[4,5-b]pyridine], the IC50 on Aurora-A (setting [1]) is 500 to 2000 nM.

Turning to `Brc1cnc2[nH]c(-c3ccc(CN4CCOCC4)cc3)nc2c1N1CCN(Cc2ccncc2)CC1` [Example 68, 6-Bromo-2-(4-morpholin-4-ylmethyl-phenyl)-7-(4-pyridin-4-ylmethyl-piperazin-1-yl)-3H-imidazo[4,5-b]pyridine], the IC50 in the test with HCT116 cells is less than 500 nM.

With `CC(c1ccccc1)N1CCN(c2c(Br)cnc3[nH]c(-c4ccc(N5CCC(O)CC5)cc4)nc23)CC1` (stereo not shown) [Example 88, 1-(4-{6-Bromo-7-[4-(1-phenyl-ethyl)-piperazin-1-yl]-3H-imidazo[4,5-b]pyridin-2-yl}-phenyl)-piperidin-4-ol], at Aurora-A (setting [1]), the IC50 is less than 500 nM.

Turning to `CC(C)(C)OC(=O)NCc1cccc(-c2nc3c(N4CCN(Cc5cccnc5)CC4)c(Br)cnc3[nH]2)c1` [Example 91, tert-Butyl 3-(6-bromo-7-(4-(pyridin-3-ylmethyl)piperazin-1-yl)-3H-imidazo[4,5-b]pyridin-2-yl)benzylcarbamate], the IC50 at Aurora-A (setting [1]) is less than 500 nM.

Consider `CC(C)(C)OC(=O)N1CCN(c2ccc(-c3nc4c(N5CCN(Cc6cccnc6)CC5)c(Br)cnc4[nH]3)cc2)CC1` [Example 103, tert-Butyl 4-(4-(6-bromo-7-(4-(pyridin-3-ylmethyl)piperazin-1-yl)-3H-imidazo[4,5-b]pyridin-2-yl)phenyl)piperazine-1-carboxylate], for which the IC50 at Aurora-A (setting [1]) is less than 500 nM.

Take `FC(F)(F)c1ccc(CN2CCN(c3c(Br)cnc4[nH]c(-c5ccc(N6CCOCC6)cc5)nc34)CC2)cn1` [Example 126, 4-(4-(6-Bromo-7-(4-((6-(trifluoromethyl)pyridin-3-yl)methyl)piperazin-1-yl)-3H-imidazo[4,5-b]pyridin-2-yl)phenyl)morpholine]: the IC50 on Aurora-A (setting [1]) is less than 500 nM.

In the case of `CC(C)c1nc(CN2CCN(c3c(Br)cnc4[nH]c(-c5ccc(CN6CCOCC6)cc5)nc34)CC2)co1` [Example 146, 4-(4-(6-Bromo-7-(4-((2-isopropyloxazol-4-yl)methyl)piperazin-1-yl)-3H-imidazo[4,5-b]pyridin-2-yl)benzyl)morpholine], the IC50 on Aurora-A (setting [1]) was less than 500 nM.

As to `COc1ccc(-c2nc3c(N4CCN(Cc5nccs5)CC4)c(Br)cnc3[nH]2)cc1` [Example 151, 2-((4-(6-Bromo-2-(4-methoxyphenyl)-3H-imidazo[4,5-b]pyridin-7-yl)piperazin-1-yl)methyl)thiazole], on Aurora-A (setting [1]), the IC50 is less than 500 nM.

`COc1ccc(-c2nc3c(N4CCN(Cc5csc(C(C)C)n5)CC4)c(Br)cnc3[nH]2)cc1` [Example 153, 4-((4-(6-Bromo-2-(4-methoxyphenyl)-3H-imidazo[4,5-b]pyridin-7-yl)piperazin-1-yl)methyl)-2-isopropylthiazole]: the IC50 on Aurora-A (setting [1]) was less than 500 nM.

For the compound `Cc1nc(CN2CCN(c3c(Br)cnc4[nH]c(-c5ccc(CN6CCN(C(=O)OC(C)(C)C)CC6)cc5)nc34)CC2)cs1` [Example 157, tert-Butyl 4-(4-(6-bromo-7-(4-((2-methylthiazol-4-yl)methyl)piperazin-1-yl)-3H-imidazo[4,5-b]pyridin-2-yl)benzyl)piperazine-1-carboxylate], on Aurora-A (setting [1]), the IC50 was less than 500 nM.

With `Cc1nc(CN2CCN(c3c(Br)cnc4[nH]c(-c5ccc(N6CCN(C(=O)OC(C)(C)C)CC6)cc5)nc34)CC2)cs1` [Example 158, tert-Butyl 4-(4-(6-bromo-7-(4-((2-methylthiazol-4-yl)methyl)piperazin-1-yl)-3H-imidazo[4,5-b]pyridin-2-yl)phenyl)piperazine-1-carboxylate], at Aurora-A (setting [1]), the IC50 was less than 500 nM.
